# How the values were obtained:
# A549 cells = experiment: Proliferation Assay (A549 viability, Cell Titer Fluor, 72 hours); format: cell-based; settings: Homo sapiens, A549, 72 h
# In short: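 Cell Titer Fluor fluorescence after 72 h compound treatment (0.5% DMSO, 37 °C, 5% CO2) of A549 cells plated 24 h earlier at 1000/well. Four-parameter logistic fitting gave IC50.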
# [1] = target: purified recombinant human GAC (GLS1) (Homo sapiens (Human), UniProt O94925); experiment: GLS1 Enzymatic Activity Assay (dual-coupled enzymatic assay, resorufin/Amplex UltraRed readout); format: biochemical;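 further: glutamate from GAC coupled via glutamate oxidase and peroxidase to resorufin, read as fluorescence (ex 530, em 590 nm) kinetically or at 20 min, four-parameter logistic IC50 fit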
# Sequence of purified recombinant human GAC (GLS1) (O94925 other isoform, or with tags, fused parts or gaps): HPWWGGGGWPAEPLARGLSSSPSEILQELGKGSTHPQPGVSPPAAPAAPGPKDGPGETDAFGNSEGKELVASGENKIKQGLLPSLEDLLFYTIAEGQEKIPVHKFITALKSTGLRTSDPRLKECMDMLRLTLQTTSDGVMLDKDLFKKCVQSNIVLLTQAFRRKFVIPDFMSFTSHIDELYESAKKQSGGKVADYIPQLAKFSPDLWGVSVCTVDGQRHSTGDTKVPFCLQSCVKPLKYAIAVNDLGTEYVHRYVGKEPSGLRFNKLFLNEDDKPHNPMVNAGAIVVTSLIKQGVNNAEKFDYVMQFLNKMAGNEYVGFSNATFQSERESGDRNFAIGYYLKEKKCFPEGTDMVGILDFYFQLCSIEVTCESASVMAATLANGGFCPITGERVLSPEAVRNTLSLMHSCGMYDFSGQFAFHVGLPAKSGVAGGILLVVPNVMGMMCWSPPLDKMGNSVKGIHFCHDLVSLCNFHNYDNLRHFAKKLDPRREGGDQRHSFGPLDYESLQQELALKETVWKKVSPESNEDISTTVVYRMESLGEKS
SMILES,EC50 (A549 cells) [nM],IC50 [1] [nM]
"CNC(=O)c1cn(CC(F)CCc2ccc(NC(=O)Cc3cc(C4CCOCC4)ccn3)nn2)nn1 (stereo not shown) [Example 253, 1-(2-fluoro-4-(6-(2-(4-(tetrahydro-2H-pyran-4-yl)pyridin-2-yl)acetamido)pyridazin-3-yl)butyl)-N-methyl-1H-1,2,3-triazole-4-carboxamide]",< 100,< 100
"O=C(Cc1cc(OC(F)(F)F)ccc1F)Nc1nnc(CCC(F)Cn2cc(C(=O)NCc3ccc(C(F)(F)F)cn3)nn2)s1 (stereo not shown) [Example 516, 1-[2-fluoro-4-(5-{2-[2-fluoro-5-(trifluoromethoxy)phenyl]acetamido}-1,3,4-thiadiazol-2-yl)butyl]-N-{[5-(trifluoromethyl)pyridin-2-yl]methyl}-1H-1,2,3-triazole-4-carboxamide]",< 100,< 100
"O=C(Cc1cc(OC(F)(F)F)ccc1F)Nc1ccc(CCCCc2nnc(C(=O)NCCO)s2)nn1 [Example 597, 5-(4-(6-(2-(2-fluoro-5-(trifluoromethoxy)phenyl)acetamido)pyridazin-3-yl)butyl)-N-(2-hydroxyethyl)-1,3,4-thiadiazole-2-carboxamide]",100 to 500,< 100
"CNC(=O)c1cn(CCCCc2ccc(NC(=O)CN3CCN(c4ccccc4OC(F)(F)F)CC3=O)nn2)nn1 [Example 249, N-methyl-1-(4-(6-(2-(2-oxo-4-(2-(trifluoromethoxy)phenyl)piperazin-1-yl)acetamido)pyridazin-3-yl)butyl)-1H-1,2,3-triazole-4-carboxamide]",< 100,< 100
"O=C(NCc1cc(C(F)(F)F)ccn1)c1cn(CCCCn2cc(C(=O)NCc3cc(F)ccc3Cl)nn2)nn1 [Example 107, 1-[4-(4-{[(2-chloro-5-fluorophenyl)methyl]carbamoyl}-1H-1,2,3-triazol-1-yl)butyl]-N-{[4-(trifluoromethyl)pyridin-2-yl]methyl}-1H-1,2,3-triazole-4-carboxamide]",< 100,< 100
"CNC(=O)c1nnc(CCC(F)Cn2cc(C(=O)NCc3cncc(C(F)(F)F)c3)nn2)s1 (stereo not shown) [Example 507, 5-{3-fluoro-4-[4-({[5-(trifluoromethyl)pyridin-3-yl]methyl}carbamoyl)-1H-1,2,3-triazol-1-yl]butyl}-N-methyl-1,3,4-thiadiazole-2-carboxamide]",100 to 500,100 to 500
"CNC(=O)c1cn(CCC(F)Cn2cc(C(=O)NCc3ccc(C(F)(F)F)nc3)nn2)nn1 (stereo not shown) [Example 186, 1-{3-fluoro-4-[4-({[6-(trifluoromethyl)pyridin-3-yl]methyl}carbamoyl)-1H-1,2,3-triazol-1-yl]butyl}-N-methyl-1H-1,2,3-triazole-4-carboxamide]",500 to 5000,100 to 500
"N#CCNC(=O)c1cn(CC(F)CCc2nnc(NC(=O)Cc3cccc(OC(F)(F)F)c3)s2)nn1 (stereo not shown) [Example 505, N-(cyanomethyl)-1-[2-fluoro-4-(5-{2-[3-(trifluoromethoxy)phenyl]acetamido}-1,3,4-thiadiazol-2-yl)butyl]-1H-1,2,3-triazole-4-carboxamide]",100 to 500,< 100
"O=C(NCc1cccc(OC(F)(F)F)c1)c1cn(CC(F)CCc2nnc(C(=O)NCc3cncc(C(F)(F)F)c3)s2)nn1 (stereo not shown) [Example 483, 5-{3-fluoro-4-[4-({[3-(trifluoromethoxy)phenyl]methyl}carbamoyl)-1H-1,2,3-triazol-1-yl]butyl}-N-{[5-(trifluoromethyl)pyridin-3-yl]methyl}-1,3,4-thiadiazole-2-carboxamide]",< 100,< 100
"CNC(=O)c1cn(C[C@@H](F)CCc2nnc(C(=O)NCc3cc(C(F)(F)F)ccn3)s2)nn1 (single isomer, unassigned) [Example 220]",500 to 5000,100 to 500
"O=C(Cc1cc(OC(F)(F)F)ccc1F)Nc1cn(CCC(F)Cn2cc(C(=O)NCc3cc(OC(F)(F)F)ccc3F)nn2)nn1 (stereo not shown) [Example 404, 1-[2-fluoro-4-(4-{2-[2-fluoro-5-(trifluoromethoxy)phenyl]acetamido}-1H-1,2,3-triazol-1-yl)buty]-N-{[2-fluoro-5-(trifluoromethoxy)phenyl]methyl}-1H-1,2,3-triazole-4-carboxamide]",< 100,< 100
"CNC(=O)c1cn(CC(F)CCn2cc(C(=O)NCc3cc(OC(F)(F)F)ccc3F)nn2)nn1 (stereo not shown) [Example 150, 1-{2-fluoro-4-[4-({[2-fluoro-5-(trifluoromethoxy)phenyl]methyl}carbamoyl)-1H-1,2,3-triazol-1-yl]butyl}-N-methyl-1H-1,2,3-triazole-4-carboxamide]",100 to 500,100 to 500
"CNC(=O)c1nnc(CCC(F)Cn2cc(C(=O)NCc3ccccc3)nn2)s1 (stereo not shown) [Example 556, 5-{4-[4-(benzylcarbamoyl)-1H-1,2,3-triazol-1-yl]-3-fluorobutyl}-N-methyl-1,3,4-thiadiazole-2-carboxamide]",500 to 5000,100 to 500
"O=C(Cc1cccc(OC(F)(F)F)c1)Nc1ccc(CCCCn2cc(C(=O)NCC(CO)CO)nn2)nn1 [Example 552, N-[3-hydroxy-2-(hydroxymethyl)propyl]-1-[4-(6-{2-[3-(trifluoromethoxy)phenyl]acetamido}pyridazin-3-yl)butyl]-1H-1,2,3-triazole-4-carboxamide]",> 5000,500 to 5000
"CNC(=O)c1cn(CCC(F)Cn2cc(C(=O)NCc3cc(C(F)(F)F)ccn3)nn2)nn1 (stereo not shown) [Example 475, 1-(3-fluoro-4-(4-((4-(trifluoromethyl)pyridin-2-yl)methylcarbamoyl)-1H-1,2,3-triazol-1-yl)butyl)-N-methyl-1H-1,2,3-triazole-4-carboxamide]",100 to 500,100 to 500
O=C(Cc1cccnc1)Nc1ccc(CCCCc2nnc(C(=O)NCCc3ccccc3)s2)nn1 [Example 27],< 100,< 100
"O=C(NCc1ccc(C(F)(F)F)cn1)c1cn(CC(F)CCc2nnc(C(=O)NCc3cc(OC(F)(F)F)ccc3F)s2)nn1 (stereo not shown) [Example 448, 5-{3-fluoro-4-[4-({[5-(trifluoromethyl)pyridin-2-yl]methyl}carbamoyl)-1H-1,2,3-triazol-1-yl]butyl}-N-{[2-fluoro-5-(trifluoromethoxy)phenyl]methyl}-1,3,4-thiadiazole-2-carboxamide]",< 100,< 100
"O=C(NCc1ccc(C(F)(F)F)nc1)c1cn(CCCCn2cc(C(=O)NCc3cccc(OC(F)(F)F)c3)nn2)nn1 [Example 82, 1-{4-[4-({[3-(trifluoromethoxy)phenyl]methyl}carbamoyl)-1H-1,2,3-triazol-1-yl]butyl}-N-{[6-(trifluoromethyl)pyridin-3-yl]methyl}-1H-1,2,3-triazole-4-carboxamide]",< 100,< 100
"O=C(CC1CCCC1)Nc1cn(CCCCn2cc(C(=O)NCC3CCCC3)nn2)nn1 [Example 288, 1-{4-[4-(2-cyclopentylacetamido)-1H-1,2,3-triazol-1-yl]butyl}-N-(cyclopentylmethyl)-1H-1,2,3-triazole-4-carboxamide]",500 to 5000,100 to 500
"CNC(=O)c1cn(CCCCc2ccc(NC(=O)Cc3cc(OC(F)(F)F)ccc3F)nn2)nn1 [Example 160, 1-[4-(6-{2-[2-fluoro-5-(trifluoromethoxy)phenyl]acetamido}pyridazin-3-yl)butyl]-N-methyl-1H-1,2,3-triazole-4-carboxamide]",< 100,< 100
